Values after ≈ are worked out from the molar mass of the structure shown. Active and inactive are the calls of the source. The calls are words filed in the database; no cut-off is given here.
Assays:
NCI-H358 [1] = test: Growth inhibition of human H358 cells expressing KRAS […] mutant measured after 3 days by Cell-titer Glo assay; type: functional; conditions: NCI-H358, 72 h, time 3 day
NCI-H358 [2] = test: Effect on Erk signalling pathway in human H358 cells assessed as increase in Erk phosphorylation by HTRF assay; type: functional, cell-based
[3] = target: RAF proto-oncogene serine/threonine-protein kinase (Homo sapiens, UniProt P04049); test: Inhibition of human recombinant cRAF measured after 1 hr by TR-FRET assay
[4] = Solubility of compound in PBS at pH 7.4; type: physicochemical
[5] = Hepatic clearance in dog liver microsomes; type: ADME, Canis lupus familiaris, Microsome
Cytochrome P450 2D6 = Cytochrome P450 2D6 (Homo sapiens, UniProt P10635); test: Inhibition of CYP2D6 in human liver microsomes; set-up: species or system Microsome
[6] = Hepatic clearance in rat liver microsomes; type: ADME, Microsome
[7] = Hepatic clearance in human liver microsomes; type: ADME, Microsome
[8] = Stability of compound in mouse liver microsomes assessed as half life; type: ADME, Microsome
[9] = Stability of compound in Dog liver microsomes assessed as half life; type: ADME, Canis lupus familiaris, Microsome
[10] = target: Voltage-gated inwardly rectifying potassium channel KCNH2 (Homo sapiens, UniProt Q12809); test: Inhibition of hERG; type: toxicity
[11] = Hepatic clearance in mouse liver microsomes; type: ADME, Microsome
Cytochrome P450 2C19 = Cytochrome P450 2C19 (Homo sapiens, UniProt P33261); test: Inhibition of CYP2C19 in human liver microsomes; type: ADME, Microsome
Cytochrome P450 3A4 [12] = target: T1, Cytochrome P450 3A4 (Homo sapiens, UniProt P08684); test: Inhibition of CYP3A4 in human liver microsomes using testosterone as substrate; set-up: species or system Microsome
Cytochrome P450 3A4 [13] = target: T1, Cytochrome P450 3A4; test: Inhibition of CYP3A4 in human liver microsomes using midazolam as substrate; set-up: species or system Microsome
Cytochrome P450 2C9 = Cytochrome P450 2C9 (Homo sapiens, UniProt P11712); test: Inhibition of CYP2C9 in human liver microsomes; type: ADME, Microsome
[14] = Stability of compound in rat liver microsomes assessed as half life; type: ADME, Microsome
[15] = Stability of compound in human liver microsomes assessed as half life; type: ADME, Microsome
Cytochrome P450 1A2 = target: T2, Cytochrome P450 1A2 (Homo sapiens, UniProt P05177); test: Inhibition of CYP1A2 in human liver microsomes; type: ADME, Microsome
T2 sequence (P05177 whole entry): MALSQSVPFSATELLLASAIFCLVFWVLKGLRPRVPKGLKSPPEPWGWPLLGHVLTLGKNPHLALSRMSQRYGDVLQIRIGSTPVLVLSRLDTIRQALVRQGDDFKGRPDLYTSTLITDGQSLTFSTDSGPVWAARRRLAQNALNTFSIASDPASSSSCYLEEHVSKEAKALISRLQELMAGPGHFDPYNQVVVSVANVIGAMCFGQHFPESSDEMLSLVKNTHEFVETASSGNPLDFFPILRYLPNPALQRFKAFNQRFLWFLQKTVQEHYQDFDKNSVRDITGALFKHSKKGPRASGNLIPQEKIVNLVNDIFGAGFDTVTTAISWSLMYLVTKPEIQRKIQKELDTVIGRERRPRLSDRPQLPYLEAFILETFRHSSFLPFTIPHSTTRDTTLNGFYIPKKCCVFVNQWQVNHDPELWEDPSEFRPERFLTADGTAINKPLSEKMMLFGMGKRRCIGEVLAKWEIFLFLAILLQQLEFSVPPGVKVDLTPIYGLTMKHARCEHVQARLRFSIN

[16] = Tmax in mouse at 2 mg/kg, po by LC-MS/MS analysis; type: ADME, organism-based; conditions: in vivo
[17] = target: Serine/threonine-protein kinase B-raf (Homo sapiens, UniProt P15056); test: Inhibition of human recombinant wild-type bRAF measured after 1 hr by TR-FRET assay
[18] = Cmax in mouse at 2 mg/kg, po by LC-MS/MS analysis; type: ADME, organism-based; set-up: dose 2 mg/kg, route po; conditions: in vivo
[19] = MRT (0 to infinity) in mouse at 2 mg/kg, po by LC-MS/MS analysis; type: ADME, organism-based; conditions: in vivo
[20] = Permeability of compound by PAMPA assay; type: ADME; conditions: read-out: permeability
[21] = Cmax in rat at 2 mg/kg, po by LC-MS/MS analysis; type: ADME, organism-based; set-up: dose 2 mg/kg, route po; conditions: in vivo
[22] = Half life in mouse at 2 mg/kg, po by LC-MS/MS analysis; type: ADME, organism-based; conditions: in vivo
[23] = Half life in mouse at 1 mg/kg, iv by LC-MS/MS analysis; type: ADME, organism-based; conditions: in vivo
[24] = MRT (0 to infinity) in rat at 1 mg/kg, iv by LC-MS/MS analysis; type: ADME, organism-based; conditions: in vivo
A-375 = test: Growth inhibition of human A375 cells expressing bRaf V600E mutant measured after 3 days by Cell-titer Glo assay; type: functional; conditions: A-375, 72 h, time 3 day
[25] = target: Serine/threonine-protein kinase B-raf (Homo sapiens, UniProt P15056, V600E); test: Inhibition of human recombinant bRAF […] mutant measured after 1 hr by TR-FRET assay
[26] = Volume of distribution in mouse at 1 mg/kg, iv by LC-MS/MS analysis; type: ADME, organism-based; conditions: in vivo
[27] = Volume of distribution in rat at 1 mg/kg, iv by LC-MS/MS analysis; type: ADME, organism-based; conditions: in vivo
[28] = MRT (0 to infinity) in mouse at 1 mg/kg, iv by LC-MS/MS analysis; type: ADME, organism-based; conditions: in vivo
Calu-6 = test: Growth inhibition of human Calu-6 cells expressing KRAS Q61K mutant measured after 3 days by Cell-titer Glo assay; type: functional; conditions: Calu-6, 72 h, time 3 day
[29] = Oral bioavailability in rat at 2 mg/kg by LC-MS/MS analysis; type: ADME, organism-based; conditions: in vivo
[30] = AUC(0 to t) in mouse at 2 mg/kg, po by LC-MS/MS analysis; type: ADME, organism-based; set-up: dose 2 mg/kg, route po; conditions: in vivo
[31] = Oral bioavailability in mouse at 2 mg/kg by LC-MS/MS analysis; type: ADME, organism-based; conditions: in vivo
[32] = Clearance in mouse at 1 mg/kg, iv by LC-MS/MS analysis; type: ADME, organism-based; conditions: in vivo
[33] = AUC(0 to t) in rat at 1 mg/kg, iv by LC-MS/MS analysis; type: ADME, organism-based; set-up: dose 1 mg/kg, route iv; conditions: in vivo
[34] = Clearance in rat at 1 mg/kg, iv by LC-MS/MS analysis; type: ADME, organism-based; conditions: in vivo
[35] = Half life in rat at 1 mg/kg, iv by LC-MS/MS analysis; type: ADME, organism-based; conditions: in vivo
[36] = MRT (0 to infinity) in rat at 2 mg/kg, po by LC-MS/MS analysis; type: ADME, organism-based; conditions: in vivo
[37] = Tmax in rat at 2 mg/kg, po by LC-MS/MS analysis; type: ADME, organism-based; conditions: in vivo
[38] = AUC(0 to t) in rat at 2 mg/kg, po by LC-MS/MS analysis; type: ADME, organism-based; set-up: dose 2 mg/kg, route po; conditions: in vivo
[39] = AUC(0 to t) in mouse at 1 mg/kg, iv by LC-MS/MS analysis; type: ADME, organism-based; set-up: dose 1 mg/kg, route iv; conditions: in vivo
[40] = Half life in rat at 2 mg/kg, po by LC-MS/MS analysis; type: ADME, organism-based; conditions: in vivo

T1 sequence (P08684 whole entry): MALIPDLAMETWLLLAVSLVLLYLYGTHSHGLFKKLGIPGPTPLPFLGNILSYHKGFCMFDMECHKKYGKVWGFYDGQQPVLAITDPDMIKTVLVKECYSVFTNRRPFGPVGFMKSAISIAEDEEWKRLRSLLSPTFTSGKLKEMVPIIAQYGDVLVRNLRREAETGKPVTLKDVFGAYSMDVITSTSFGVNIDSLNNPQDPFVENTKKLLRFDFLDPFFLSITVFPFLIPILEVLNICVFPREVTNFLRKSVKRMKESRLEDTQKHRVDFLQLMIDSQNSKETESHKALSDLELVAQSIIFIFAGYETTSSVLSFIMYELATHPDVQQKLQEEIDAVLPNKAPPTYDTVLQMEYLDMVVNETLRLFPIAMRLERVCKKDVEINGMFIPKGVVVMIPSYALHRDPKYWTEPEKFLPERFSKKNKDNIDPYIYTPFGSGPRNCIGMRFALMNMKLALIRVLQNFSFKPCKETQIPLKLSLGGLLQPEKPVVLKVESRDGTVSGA
Chain of RAF proto-oncogene serine/threonine-protein kinase (P04049 whole entry): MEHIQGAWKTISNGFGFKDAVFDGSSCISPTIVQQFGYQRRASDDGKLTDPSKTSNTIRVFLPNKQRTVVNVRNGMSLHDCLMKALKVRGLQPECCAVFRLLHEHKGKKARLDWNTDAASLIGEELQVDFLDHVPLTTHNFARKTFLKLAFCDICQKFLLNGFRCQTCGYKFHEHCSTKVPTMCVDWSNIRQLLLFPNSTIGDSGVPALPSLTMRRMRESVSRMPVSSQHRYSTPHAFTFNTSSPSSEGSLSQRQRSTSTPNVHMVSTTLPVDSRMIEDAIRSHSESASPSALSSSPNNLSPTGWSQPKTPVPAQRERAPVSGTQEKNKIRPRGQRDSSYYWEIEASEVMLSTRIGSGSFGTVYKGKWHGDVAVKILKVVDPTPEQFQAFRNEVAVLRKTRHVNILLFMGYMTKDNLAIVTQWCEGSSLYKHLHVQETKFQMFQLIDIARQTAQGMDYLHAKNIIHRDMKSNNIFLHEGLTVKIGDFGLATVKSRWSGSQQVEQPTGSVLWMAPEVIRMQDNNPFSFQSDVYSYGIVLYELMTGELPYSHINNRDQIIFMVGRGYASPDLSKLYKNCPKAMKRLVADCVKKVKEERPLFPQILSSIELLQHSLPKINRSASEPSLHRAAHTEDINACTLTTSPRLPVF
Chain of Cytochrome P450 2C9 (P11712 whole entry): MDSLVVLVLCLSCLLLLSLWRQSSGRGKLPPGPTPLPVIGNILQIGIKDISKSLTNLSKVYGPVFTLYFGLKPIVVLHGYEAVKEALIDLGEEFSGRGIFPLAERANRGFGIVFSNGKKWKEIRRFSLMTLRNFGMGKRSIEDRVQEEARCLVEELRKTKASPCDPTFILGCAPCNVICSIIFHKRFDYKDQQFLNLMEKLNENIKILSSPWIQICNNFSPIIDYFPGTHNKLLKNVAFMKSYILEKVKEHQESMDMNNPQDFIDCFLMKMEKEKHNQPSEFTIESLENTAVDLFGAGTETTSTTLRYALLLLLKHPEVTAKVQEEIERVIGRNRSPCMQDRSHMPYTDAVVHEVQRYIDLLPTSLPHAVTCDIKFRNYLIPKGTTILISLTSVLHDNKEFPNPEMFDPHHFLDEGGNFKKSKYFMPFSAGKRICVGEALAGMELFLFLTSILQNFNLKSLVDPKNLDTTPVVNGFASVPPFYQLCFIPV
Chain of Cytochrome P450 2D6 (P10635 whole entry): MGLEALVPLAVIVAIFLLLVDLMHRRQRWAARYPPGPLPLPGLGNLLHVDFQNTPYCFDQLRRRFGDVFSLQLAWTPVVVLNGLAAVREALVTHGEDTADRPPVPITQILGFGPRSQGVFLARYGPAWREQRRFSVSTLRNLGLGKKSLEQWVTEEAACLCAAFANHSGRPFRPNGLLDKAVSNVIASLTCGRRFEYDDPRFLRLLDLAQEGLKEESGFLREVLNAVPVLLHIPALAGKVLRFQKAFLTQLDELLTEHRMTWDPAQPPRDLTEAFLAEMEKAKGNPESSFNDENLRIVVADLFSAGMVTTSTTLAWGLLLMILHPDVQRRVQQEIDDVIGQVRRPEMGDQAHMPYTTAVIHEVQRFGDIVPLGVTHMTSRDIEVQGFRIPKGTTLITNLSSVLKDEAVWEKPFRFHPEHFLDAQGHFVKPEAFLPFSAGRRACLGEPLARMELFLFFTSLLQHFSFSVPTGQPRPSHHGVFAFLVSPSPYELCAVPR
Chain of Cytochrome P450 2C19 (P33261 whole entry): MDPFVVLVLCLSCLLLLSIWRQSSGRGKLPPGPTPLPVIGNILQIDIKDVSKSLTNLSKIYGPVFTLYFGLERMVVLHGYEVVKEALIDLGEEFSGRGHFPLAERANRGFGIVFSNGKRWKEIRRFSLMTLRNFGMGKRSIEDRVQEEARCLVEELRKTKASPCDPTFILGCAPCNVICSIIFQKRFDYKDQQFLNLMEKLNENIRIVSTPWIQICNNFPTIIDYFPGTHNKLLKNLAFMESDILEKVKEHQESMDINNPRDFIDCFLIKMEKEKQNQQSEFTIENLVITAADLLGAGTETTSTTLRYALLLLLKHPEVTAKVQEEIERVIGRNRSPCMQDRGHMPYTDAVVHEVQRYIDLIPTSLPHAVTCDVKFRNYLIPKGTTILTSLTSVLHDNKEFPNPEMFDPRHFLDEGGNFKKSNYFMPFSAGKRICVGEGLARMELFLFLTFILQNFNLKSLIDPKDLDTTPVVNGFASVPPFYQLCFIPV
Chain of Voltage-gated inwardly rectifying potassium channel KCNH2 (Q12809 whole entry): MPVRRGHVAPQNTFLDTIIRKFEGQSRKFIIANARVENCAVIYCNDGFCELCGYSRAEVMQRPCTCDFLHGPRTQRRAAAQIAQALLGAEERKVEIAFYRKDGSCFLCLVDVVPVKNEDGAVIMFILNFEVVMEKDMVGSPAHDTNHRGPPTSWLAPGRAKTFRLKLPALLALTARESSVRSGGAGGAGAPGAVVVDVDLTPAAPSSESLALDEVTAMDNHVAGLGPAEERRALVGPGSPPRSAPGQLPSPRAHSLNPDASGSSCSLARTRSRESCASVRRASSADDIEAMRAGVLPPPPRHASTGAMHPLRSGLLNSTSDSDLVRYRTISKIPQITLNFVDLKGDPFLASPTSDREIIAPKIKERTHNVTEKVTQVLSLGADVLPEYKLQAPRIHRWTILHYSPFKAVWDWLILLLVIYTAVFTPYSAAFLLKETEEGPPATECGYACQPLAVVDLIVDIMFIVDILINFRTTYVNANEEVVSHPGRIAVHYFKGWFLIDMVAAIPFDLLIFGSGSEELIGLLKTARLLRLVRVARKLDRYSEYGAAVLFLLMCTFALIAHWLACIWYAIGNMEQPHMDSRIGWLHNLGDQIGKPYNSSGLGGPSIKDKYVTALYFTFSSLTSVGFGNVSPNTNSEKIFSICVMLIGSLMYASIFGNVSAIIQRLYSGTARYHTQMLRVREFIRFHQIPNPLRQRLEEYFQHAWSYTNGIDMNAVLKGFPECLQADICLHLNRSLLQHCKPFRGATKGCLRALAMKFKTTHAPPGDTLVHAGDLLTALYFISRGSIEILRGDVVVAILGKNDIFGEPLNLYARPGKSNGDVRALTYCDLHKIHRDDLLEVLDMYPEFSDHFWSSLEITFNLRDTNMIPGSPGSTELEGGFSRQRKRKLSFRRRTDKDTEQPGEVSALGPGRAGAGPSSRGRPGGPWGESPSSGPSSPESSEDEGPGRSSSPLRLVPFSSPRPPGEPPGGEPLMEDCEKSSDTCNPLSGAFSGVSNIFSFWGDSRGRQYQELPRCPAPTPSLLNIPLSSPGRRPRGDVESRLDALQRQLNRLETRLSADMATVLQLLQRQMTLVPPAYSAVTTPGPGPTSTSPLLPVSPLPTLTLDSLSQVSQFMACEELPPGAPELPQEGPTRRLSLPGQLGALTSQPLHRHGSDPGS
Chain of Serine/threonine-protein kinase B-raf (Homo sapiens, UniProt P15056, V600E) (P15056 2-766 V600E limits assumed): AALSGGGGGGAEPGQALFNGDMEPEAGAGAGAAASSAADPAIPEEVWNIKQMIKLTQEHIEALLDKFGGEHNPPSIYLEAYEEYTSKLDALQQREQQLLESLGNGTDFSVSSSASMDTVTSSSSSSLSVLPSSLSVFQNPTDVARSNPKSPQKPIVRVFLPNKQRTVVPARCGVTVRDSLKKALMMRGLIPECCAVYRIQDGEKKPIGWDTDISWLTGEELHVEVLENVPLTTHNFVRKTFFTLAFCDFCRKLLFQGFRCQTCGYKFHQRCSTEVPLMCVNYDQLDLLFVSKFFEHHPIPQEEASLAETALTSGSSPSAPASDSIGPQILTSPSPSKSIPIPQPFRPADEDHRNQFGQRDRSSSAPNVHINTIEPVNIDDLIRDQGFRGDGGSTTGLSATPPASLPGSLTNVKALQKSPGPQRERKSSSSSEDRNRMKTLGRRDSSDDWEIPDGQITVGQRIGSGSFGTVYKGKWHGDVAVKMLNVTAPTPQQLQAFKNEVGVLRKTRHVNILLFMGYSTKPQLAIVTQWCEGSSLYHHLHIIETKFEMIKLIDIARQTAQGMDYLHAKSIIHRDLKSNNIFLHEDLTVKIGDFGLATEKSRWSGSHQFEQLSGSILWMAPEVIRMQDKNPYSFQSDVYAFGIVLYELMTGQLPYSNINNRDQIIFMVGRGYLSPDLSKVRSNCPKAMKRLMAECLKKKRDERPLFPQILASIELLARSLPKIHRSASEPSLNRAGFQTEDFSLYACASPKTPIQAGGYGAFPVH

Cc1ccc(NC(=O)c2ccnc(C(F)(F)F)c2)cc1-c1cc(OCCO)nc(N2CCOCC2)c1 [NAPORAFENIB]
GI50 (NCI-H358 [1]): 3 µM | Activity (NCI-H358 [2]): Active

Cc1ccc(NC(=O)c2ccnc(C(F)(F)F)c2)cc1-c1ccc2c(c1)C(=O)CC1(CCOCC1)O2
GI50 (NCI-H358 [1]): 9.7 µM | IC50 [3]: 0.037 µM

Cc1ccc(NC(=O)c2ccnc(C(F)(F)F)c2)cc1-c1ccc2c(c1)N(O)C1(CCOCC1)NC2=O
GI50 (NCI-H358 [1]): 8.9 µM | IC50 [3]: 0.055 µM

Cc1ccc(NC(=O)c2ccnc(C(F)(F)F)c2)cc1-c1ccc2c(c1)NC1(CCOCC1)NC2=O
GI50 (NCI-H358 [1]): 15 µM | IC50 [3]: 0.0048 µM

Cc1ccc(NC(=O)c2ccnc(C(F)(F)F)c2)cc1-c1ccc2c(c1)OC1(CCS(=O)(=O)CC1)NC2=O
GI50 (NCI-H358 [1]): 7.3 µM | IC50 [3]: 0.005 µM

Cc1ccc(NC(=O)c2ccnc(C(F)(F)F)c2)cc1-c1ccc2c(c1)OC1(CCOCC1)CC2=O
GI50 (NCI-H358 [1]): 4.2 µM | solubility [4]: 0.46 µM (≈ 0.228 µg/mL) | CLH [5]: 20.6 µL/min/g | IC50 (Cytochrome P450 2D6): > 30 µM | CLH [6]: 52.2 µL/min/g | CLH [7]: 18.3 µL/min/g | half-life [8]: 0.468 h | half-life [9]: 0.54 h | IC50 [3]: 0.015 µM | IC50 [10]: 3.4 µM | CLH [11]: 61.6 µL/min/g | Activity (NCI-H358 [2]): Active | IC50 (Cytochrome P450 2C19): > 30 µM | IC50 (Cytochrome P450 3A4 [12]): > 30 µM | IC50 (Cytochrome P450 3A4 [13]): > 30 µM | IC50 (Cytochrome P450 2C9): > 30 µM | half-life [14]: 0.308 h | half-life [15]: 0.135 h | IC50 (Cytochrome P450 1A2): > 30 µM

Cc1ccc(NC(=O)c2ccnc(C(F)(F)F)c2)cc1-c1ccc2c(c1)OC1(CCSCC1)NC2=O
GI50 (NCI-H358 [1]): 5.6 µM | IC50 [3]: 0.007 µM

Cc1ccc(NC(=O)c2ccnc(C(F)(F)F)c2)cc1-c1ccc2c(c1)OC1(CCOCC1)CC2NCCO (stereo unspecified)
GI50 (NCI-H358 [1]): 14 µM | IC50 [3]: 0.029 µM

Cc1ccc(NC(=O)c2ccnc(C(F)(F)F)c2)cc1-c1ccc2c(c1)OC1(CCOCC1)NC2=O
Tmax [16]: 1 h | IC50 [17]: 0.036 µM | Cmax [18]: 0.00148 µg/mL | MRT inf [19]: 3.59 h | GI50 (NCI-H358 [1]): 3.4 µM | Papp [20]: < 0.18 nm/s | Cmax [21]: 0.0521 µg/mL | t1/2 [22]: 1.91 h | half-life [23]: 2.81 h | solubility [4]: 0.7 µM (≈ 0.348 µg/mL) | CLH [5]: < 9.6 µL/min/g | IC50 (Cytochrome P450 2D6): > 30 µM | MRT inf [24]: 4.35 h | GI50 (A-375): 2.9 µM | IC50 [25]: 0.0294 µM | CLH [6]: 32.7 µL/min/g | Vd [26]: 5.87 L/kg | CLH [7]: 13.7 µL/min/g | half-life [8]: 1.02 h | Vd [27]: 5.59 L/kg | MRT inf [28]: 1.74 h | half-life [9]: > 2.32 h | GI50 (Calu-6): 3.9 µM | bioavailability [29]: 24% | IC50 [3]: 0.0038 µM | IC50 [10]: 5.9 µM | CLH [11]: 45 µL/min/g | AUCt [30]: 0.546 µg·h/mL | bioavailability [31]: 40% | clearance [32]: 1.45 L/h/kg | Activity (NCI-H358 [2]): Active | AUC(0-t) [33]: 1.12 µg·h/mL | clearance [34]: 0.9 L/h/kg | IC50 (Cytochrome P450 2C19): > 30 µM | IC50 (Cytochrome P450 3A4 [12]): > 30 µM | half-life [35]: 4.39 h | MRT inf [36]: 8.14 h | Tmax [37]: 4 h | IC50 (Cytochrome P450 3A4 [13]): > 30 µM | IC50 (Cytochrome P450 2C9): > 30 µM | AUC(0-t) [38]: 0.517 µg·h/mL | half-life [14]: 0.783 h | half-life [15]: 0.485 h | AUC(0-t) [39]: 0.688 µg·h/mL | half-life [40]: 4.57 h | IC50 (Cytochrome P450 1A2): > 30 µM

Cc1ccc(NC(=O)c2ccnc(C(F)(F)F)c2)cc1-c1ccc2c(c1)OC1(CCOC1)NC2=O (stereo unspecified)
GI50 (NCI-H358 [1]): 8.3 µM | IC50 [3]: 0.0043 µM

Reference: ChEMBL document CHEMBL5143623, “Discovery of novel spiro compound as RAF kinase inhibitor with in vitro potency against KRAS mutant cancer” (Bioorg Med Chem Lett, 2022)
